Values joined by “and” are separate entries in the source; they are usually repeats but may differ in a detail not shown here. Equal entries are not always repeated. Marks after values point to notes of the source that are not given here.
Columns and labels:
PDE10A-PTXm-1 complex = biological target: T1, PDE10A-PTXm-1 complex (Homo sapiens, UniProt Q9Y233); experiment: Competitive ITC: PTX titrated against PDE10A-PTXm-1 complex; type: binding
T1 construct: Catalytic domain of each protein was cloned between BamHI and XhoI restriction sites in; 6xHis-SUMO (N, cleaved yes); made in house; host or cells: E. coli Rosetta 2 (DE3)
T1 sequence (Q9Y233 718-1035 limits assumed, one chain of several): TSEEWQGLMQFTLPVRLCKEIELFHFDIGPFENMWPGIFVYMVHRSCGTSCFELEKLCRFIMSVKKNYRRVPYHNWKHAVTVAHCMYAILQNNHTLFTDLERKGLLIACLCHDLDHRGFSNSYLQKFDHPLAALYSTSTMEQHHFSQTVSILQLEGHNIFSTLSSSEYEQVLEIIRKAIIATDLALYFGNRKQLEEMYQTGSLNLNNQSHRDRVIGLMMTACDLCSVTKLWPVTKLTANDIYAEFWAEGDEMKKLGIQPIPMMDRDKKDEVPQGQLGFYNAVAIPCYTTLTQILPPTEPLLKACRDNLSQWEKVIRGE

testicular spermatozoa = experiment: Twitching motility of testicular spermatozoa; type: cell-based, human; conditions: PTX 1 mM, PTXm-1 0.25 mM; for spermatozoa with twitching motility vs control: increased incubation time (1 h)
Excerpt: Testicular tissue from men diagnosed with prostate cancer and admitted for orchiectomy (N = 8, age 74.33 ± 5.61 years) were collected from Urology operation theater in sterile PBS. The testis was transferred to Petri dish, washed in phosphate buffered solution (PBS) and cut into small pieces. Seminiferous tubule contents were released into the Petri dish containing EBSS medium with 0.1% BSA by milking the seminiferous tubules with the help of with the help of sterile glass slides. The cell suspension was screened for the presence of testicular spermatozoa under inverted microscope (200 × magnification). The cell suspension was divided into four equal parts- (a) Control (C): […] (b) Vehicle control (VC): […] The testicular sperm suspension was processed by discontinuous gradient technique using 40% and 80% density solutions ([…], Germany). The discontinuous gradient column was prepared by adding 1 mL of 80% and 40% gradient solutions sequentially in a sterile test tube. The testicular cell suspension was carefully added above the gradients and centrifuged at 500 g for 20 min. The pellet obtained after centrifugation was further washed by centrifuging at 400 g for 8 min twice.

[1] = tested on: spermatozoa from normozoospermic samples; experiment: Calcium ionophore-induced acrosome reaction assay; type: cell-based, human; conditions: PTX 1 mM, PTXm-1 0.25 mM
Experimental: The ionophore-induced acrosome reaction was assessed using a method described earlier. The swim-up fraction collected (at 1 and 2 h after incubation) from various groups were incubated with calcium ionophore A23187 (Sigma-Aldrich, Cat. No. C7522) at 37 °C for 1 h (N = 28, normozoospermic). Sperm suspension was washed with phosphate buffered solution (PBS), centrifuged at 300 g for 10 min and fixed on a coverslip using methanol. The spermatozoa were stained with Fluorescein isothiocyanate-conjugated Pisum sativum agglutinin (FITC-PSA, Sigma-Aldrich, Cat. No. L0770), washed with Milli-Q water, counterstained with propidium iodide (PI) and then mounted on slide using mounting media. Percentage of acrosome reacted spermatozoa (without green florescence in acrosome region) were counted in 500 spermatozoa by observing under fluorescence microscope (400x).

[2] = tested on: tyrosine phosphorylated sperm proteins; experiment: Tyrosine phosphorylation of sperm proteins by immunofluorescence; type: cell-based, human; conditions: PTX 1 mM, PTXm-1 0.25 mM; control 16%
Experimental: The cells were incubated with blocking solution (PBS containing 1% BSA and 0.1% Tween-20) for 1 h followed by incubation at 4 °C overnight with anti phospho-tyrosine antibody (1:300 dilution, Clone PY20, Merck Millipore, Cat. No. 05–947). […] No. S6MQT0101), cells were counterstained with DAPI and observed under fluorescence microscope (1000x, oil immersion). The number of tyrosine phosphoprotein positive spermatozoa were counted in total of 500 spermatozoa and the result was expressed in percentage spermatozoa.

[3] = tested on: spermatozoa, oocytes and embryos of Swiss albino mice; experiment: In vitro fertilization and pre-implantation embryo development; type: cell-based; conditions: for Total cell number (Mean ± SE): blastocysts, PTX 1 mM, PTXm-1 0.25 mM, control 92.78 ± 6.58; for Hatching rate at 120 h post insemination / Blastocyst rate at 120 h post insemination / Fertilization rate at 16 h post insemination: sperm treated with PTX 1 mM or PTXm-1 0.25 mM; for Hatching rate at 120 h post insemination: control 64.56; for Blastocyst rate at 120 h post insemination: control 81.67; for Fertilization rate at 16 h post insemination: control 83.56
Experimental: The adult female Swiss albino mice were stimulated using 5 IU of pregnant mare serum gonadotropin (PMSG) and 10 IU of human chorionic gonadotropin (hCG) at an interval of 48 h. At 13 h post hCG administration, the cumulus oocyte complexes (COCs) were collected by teasing the oviduct into M2 medium. To assess the effect of PTXm-1 on fertilization outcome and the early embryo development, Swiss albino mice were used. The male mice (6 to 8 weeks, N = 6 per trial, total 3 trials) were humanely sacrificed by cervical dislocation and cauda was dissected out. The IVF was performed as described in our earlier report. Briefly, the cauda was teased in a Petri dish containing EBSS (with 0.1% BSA) culture media and incubated at 37 °C, 5% CO2 incubator. After 2 h of incubation, the spermatozoa were collected and divided equally into 4 parts as C, VC, […] and PTXm-1 groups. The sperm suspension was centrifuged at 250 g for 8 min and the supernatant was discarded. […] The overlay containing motile sperm fraction of were collected carefully without disturbing the pellet, and were used for preparation of insemination droplets (80 µL) which was covered with paraffin oil (Cat. No. 61822605001730, Merck, Germany). The female mice were sacrificed humanely by cervical dislocation (N = 12 per trial, total 3 trials). […] […] Blastocyst rate, hatching rate and, DNA damage and total cell number was assessed in blastocysts.

[4] = tested on: Oct4, Sox2, Nanog, Cdx2 in blastocysts; experiment: mRNA expression of pluripotency and trophectoderm genes in blastocysts; type: cell-based, Swiss albino mice; conditions: PTX 1 mM, PTXm-1 0.25 mM
Experimental: RNA was extracted from blastocyst stage embryos (30 per group) using an RNA isolation aqueous micro kit (Catalogue No. AM1931; Ambion, Foster City, CA, USA) as explained. Briefly, embryos were lysed using lysis buffer to release total RNA and was eluted using elution buffer. RNA obtained was treated with DNase for 20 min at 37 °C and stored at − 80 °C. cDNA was synthesized using a Superscript first strand cDNA synthesis kit for reverse transcription polymerase chain reaction (Catalogue No. E6300; NewEngland Biolabs, Ipswich, MA, USA).
Quantitative PCR for relative expression of Sox2, Nanog, and Oct4 mRNA was done using StepOne real-time PCR system (Applied Biosystems, California, USA) with TaqMan® Gene Expression Assay probes and TaqMan® Fast Advanced MixThe relative mRNA expression of Cdx2 was also estimated using real-time PCR system with SYBER Green chemistry (TaKaRa, Shiga, Japan, Cat. No. RR420A). All the data were normalized with GAPDH housekeeping gene as an internal control. The relative expression levels were calculated in terms of fold change. The IDs for TaqMan® Gene Expression Assay probes used in this study and the specific primers used for Cdx2 gene and GAPDH housekeeping gene are given in Supplementary Table S1.

[5] = 15 min after incubation, control 5.06 ± 0.98%

decrease of the binding affinity of PTX towards PDE10A in presence of PTXm-1 (PDE10A-PTXm-1 complex; PDE10A-PTXm-1 2:1 molar ratio)	Compound	Kd (PDE10A-PTXm-1 complex; PDE10A-PTXm-1 complex with 2:1 molar ratio) [µM]	spermatozoa with twitching motility (testicular spermatozoa; [5]) [%]	spermatozoa with twitching motility (testicular spermatozoa; 24 h incubation) [%]	spermatozoa with twitching motility vs control (testicular spermatozoa)	acrosome reacted spermatozoa ([1]; 1 h, control 15.21%) [%]	acrosome reacted spermatozoa ([1]; 2 h) [%]	spermatozoa with tyrosine phosphorylated proteins [2] [%]	Total cell number (Mean ± SE) [3]	Hatching rate at 120 h post insemination [3]	Blastocyst rate at 120 h post insemination [3]	Fertilization rate at 16 h post insemination [3]	expression of pluripotency genes in blastocysts [4]
–	CC(=O)CCCCn1c(=O)c2c(ncn2C)n(C)c1=O [PTX, pentoxifylline]	350	11.78 ± 1.36	7.90 ± 1.06	significantly higher (P < 0.001)	24.25	34.28	24.75	88.91 ± 6.56^b,c	67.56^a,c %	86.34^a,c %	95.64% and 95.64^b,c %	did not differ between the groups
~ eight-fold decrease	COc1ccc2cc(/C=C/C(=O)CCCCn3c(=O)c4c(ncn4C)n(C)c3=O)ccc2c1 [PTXm-1]	–	9.95 ± 0.79	13.39 ± 0.65	significantly higher (P < 0.001)	15.78	25.17	23.25	93.23 ± 8.56^e	66.89^b,d %	88.45^b,d %	96.25% and 96.25^b,c %	did not differ between the groups
